In test [1] the test system is Human keratinocytes. Put plainly: Visual contraction of human keratinocytes by real time visual microscopy (cell area). It counts as cell-based. As to the method: Human keratinocytes and Epilife culture media (Cascade Biologics, Portland, Oreg.) were cultured at 37° C. in a humidified atmospheres of 5% CO2/95% air. Glass Cover Slides (Applied Biophysics, Troy, N.Y.) were coated with 0.01 mg/ml Laminin V (Sigma Aldirch, St Louis, Mo.) in sterile Phosphate Buffered Saline (Gibco Life Sciences, San Diego, Calif.). Human keratinocytes were prepared at a density of 0.125×10^6 cells/mL in Epilife culture media. Human keratinocytes were plated at 3.75×10^4 cells/well on a 6 well plate containing Laminin coated coverslips and cultured at 37° C. in a humidified atmospheres of 5% CO2/95% O2 for 48 hrs. Individual coverslips were transferred to a open bath imaging chamber (Warner Instruments, Hamden, Conn.) mounted on a Leica inverted microscope (Leitz DM1L) with an attached CCD camera. Cells were perfused with Hank's Buffered Salt Solution (HBSS; Gibco Life Sciences, San Diego, Calif.) at flow rate of 1 ml/min using a peristaltic pump (Cole Parmer, Vernon Hills, Ill.). […] The pH of the HBSS without DMAE or THPED. (“Media Alone”) was also adjusted to pH 7.2-7.3. […] Cell area was determined using Scion Image software (Version 4.0.2), and reductions in cell area were reported as the ratio of cell area after treatment to cell area prior to treatment

Test [2] deals with Human keratinocytes. Put plainly: Electric Cell-Substrate Impedance Sensing (ECIS) capacitance contraction of human keratinocytes. It counts as cell-based. Particulars: for Electrical Capacitance Contraction of Human Keratinocytes (AUC of capacitance, Mean ± Std Dev): integrated over 5 hrs, 40,000 Hz, pH 7.2-7.3; for contraction or shrinkage of keratinocyte cell area as measured by keratinocyte capacitance (in words): compared to media treatment alone. From the text:
Electrical changes due to the presence of a cell layer can be used to calculate cell morphological parameters including the barrier function of the cell layer (the spacing between the ventral side of the cell and the substratum) and the cell membrane capacitance (Giaever and Keese, Proceedings of National Academy of Sciences 88, 7896, 1991).
Current flowing between a reference electrode, onto which cells or cell cultures may be attached, and a larger counter electrode using normal culture medium as the electrolyte can be used to detect changes in cell morphological parameters. In the absence of cells on the electrode, the current flows unrestrained from the surface of the electrodes. In the presence of cells attached and spread upon the electrode, the current must now flow in the spaces under and between the cells, as the cell membrane act as insulators.
The electrical changes of living, viable cells can be sampled rapidly, in real time, over an extended period of time, and the measurements are the measurement is non-invasive. An example of this technology is the Electric Cell-substrate Impedance Sensing System (ECIS) available from Applied Biophysics (Troy, N.Y.). Electrical changes in keratinocyte morphological parameters can be used to identify novel compounds for anti-aging benefits.
Human keratinocytes and Epilife culture media (Cascade Biologics, Portland, Oreg.) were cultured at 37° C. in a humidified atmospheres of 5% CO2/95% air. Electric Cell-substrate Impedance Sensing System (ECIS) electrode arrays (Applied Biophysics , Troy, N.Y.) were coated with 0.01 mg/ml Laminin V (Sigma Aldirch, St Louis, Mo.) in sterile Phosphate Buffered Saline (Gibco Life Sciences, San Diego, Calif.). Human keratinocytes were prepared at a density of 0.125×10^6 cells/mL in Epilife culture media. Human keratinocytes were plated at 5.0×10^4 cells/electrode well and cultured at 37° C. in a humidified atmospheres of 5% CO2/95% O2 for 24-48 hrs. Capacitance changes (in nanofarads, nF) of keratinocytes were measured using a Electric Cell-substrate Impedance Sensing System (ECIS) Model 1600R (Applied Biophysics, Troy, N.Y.) using the method of Wegener and co-workers (Wegener J, Keese C R, Giaever I, Exp Cell Res. 259:158-166, 2000) at a frequency of 40,000 Hz. Capacitance readings are inversely related to the contact area of a cell onto the ECIS electrode array, the greater the cell area contacting the electrode the smaller the capacitance readings (Wegener J, Keese C R, Giaever I, Exp Cell Res. 259:158-166, 2000). Conversely as a cell contracts or shrinks, the contact area of the cell onto the ECIS electrode array decreases, resulting in an increase in the capacitance readings. […] These calculations are based on the trapezoid theorem. The AUC of the media curve was subtracted from the compound treated group. A positive AUC difference indicates keratinocyte contraction, the greater the AUC difference the greater the amount of keratinocyte contraction. […] DMAE is a known skin-firming agent. The compounds were diluted into Hank's Buffered Salt Solution (HBSS; Gibco Life Sciences, San Diego, Calif.) and the pH of the solution adjusted to between pH 7.2-7.3. The pH of the HBSS without compounds (“Media Alone”) was also adjusted to pH 7.2-7.3.

In test [3] the test system is Human keratinocytes. Put plainly: Reversal of visual contraction of human keratinocytes after removal of DMAE. It counts as cell-based. The note with it: for Reversal of Visual Contraction of Human Keratinocytes (Mean ± Std Dev): 0.1% DMAE. How it is done: Human keratinocytes and Epilife culture media (Cascade Biologics, Portland, Oreg.) were cultured at 37° C. in a humidified atmospheres of 5% CO2/95% air. Glass Cover Slides (Applied Biophysics, Troy, N.Y.) were coated with 0.01 mg/ml Laminin V (Sigma Aldirch, St Louis, Mo.) in sterile Phosphate Buffered Saline (Gibco Life Sciences, San Diego, Calif.). Human keratinocytes were prepared at a density of 0.125×10^6 cells/mL in Epilife culture media. Human keratinocytes were plated at 3.75×10^4 cells/well on a 6 well plate containing Laminin coated coverslips and cultured at 37° C. in a humidified atmospheres of 5% CO2/95% O2 for 48 hrs. Individual coverslips were transferred to a open bath imaging chamber (Warner Instruments, Hamden, Conn.) mounted on a Leica inverted microscope (Leitz DM1L) with an attached CCD camera. Cells were perfused with Hank's Buffered Salt Solution (HBSS; Gibco Life Sciences, San Diego, Calif.) at flow rate of 1 ml/min using a peristaltic pump (Cole Parmer, Vernon Hills, Ill.). […] The pH of the HBSS without DMAE or THPED. (“Media Alone”) was also adjusted to pH 7.2-7.3. […] Images were collected of a field of keratinocytes containing 10-20 cells at 0, 10 and 20 minutes of treatment using ImagePro software. Cell area was determined using Scion Image software (Version 4.0.2), and reductions in cell area were reported as the ratio of cell area after treatment to cell area prior to treatment
In the following example, keratinocytes were prepared and plated on coverslips as described above.

For test [4], the system named is granular cells in the viable epidermis. The test is described as follows: Confocal reflectance microscopy of upper inner arm skin, cell size decrease after product application. The format is in vivo, human. Particulars: two microliters/cm^2, imaged over 20 minutes, eight volunteers, gel with 3% DMAE. How it is done: A study was conducted using a VivaScope 1000 Confocal Reflectance Microscope from Lucid (Rochester, N.Y.) and a water immersion objective of NA 1.2-0.7 (60×). Sites on the upper inner arm were imaged immediately after product application (two microliters/cm^2 was applied) and every 2 minutes for an interval of 20 minutes. […] The confocal microscope was set up to acquire 16 frames from the top of the stratum corneum in steps of 3 micrometers, allowing observation of changes in cell size/morphology within a 48 micrometer depth region. As described by Rajadhyaksha et al., J. Invest. Dermatol. 113(3):293-303 (1999), the size of the cells varies (in diameter) with skin depth from 25-30 micromerters in the granular cells to 15-25 micrometers in spinous cells layers. In this study, cells were observed approximately 21 micrometers from the top of the stratum corneum, primarily granular cells, or at the top of the spinous cells. The exact same cells were compared in the initial maps and in the final maps in order to avoid any interference of cell size differences with the depth as described by Rajadhyaksha et al. After image acquisition, we used an enhancement routine developed in IDL® Software (Research System Inc., Boulder, Colo.) and the cells size area were measured using Image Pro Plus® (Media Cybernetics Inc., Silver Springs, Md.). […]

As to `CC(O)CN(CCN(CC(C)O)CC(C)O)CC(C)O` (stereo not drawn) [THPED, N,N,N′,N′-Tetrakis(2-hydroxypropyl)ethylenediamine], the “contraction or shrinkage of keratinocyte cell area as determined by keratinocyte surface area (in words)” value in test [1] is listed as “dose-dependent contraction or shrinkage”. The “Visual Contraction of Human Keratinocytes (reduction in cell area, Mean ± Std Dev)” value is 32.9% ± 11.3% in test [1] (0.1%, 2 Min); 37.9% ± 10.7% in test [1] (0.1%, 10 Min); 47.3% ± 12.7% in test [1] (0.1%, 20 Min). The “Electrical Capacitance Contraction of Human Keratinocytes (AUC of capacitance, Mean ± Std Dev)” value in test [2] (0.01% V/V) was 29.2 ± 3.2; in test [2] (0.05% V/V), 35.1 ± 5.3; in test [2] (0.1% V/V), 44.5 ± 9.1. In addition, the “contraction or shrinkage of keratinocyte cell area as measured by keratinocyte capacitance (in words)” value in test [2] was “dose-dependent contraction or shrinkage”.
As to `CN(C)CCO` [DMAE, 2-(dimethylamino)ethanol], the “Reversal of Visual Contraction of Human Keratinocytes (Mean ± Std Dev)” value in test [3] (20 Min Treatment with DMAE) is recorded as 32.17% ± 2.65%; in test [3] (30 Min After Removal of DMAE), 24.25% ± 3.23%; in test [3] (60 Min After Removal of DMAE), 16.546% ± 3.89%. Further, in test [3] (after removal of DMAE), the “reversibility of keratinocyte contraction (in words)” value is listed as “reversal of the DMAE-induced keratinocyte contraction”. The “contraction or shrinkage of keratinocyte cell area as determined by keratinocyte surface area (in words)” value in test [1] is reported as “dose-dependent contraction or shrinkage”. Besides, the “Visual Contraction of Human Keratinocytes (reduction in cell area, Mean ± Std Dev)” value is 4.82% ± 0.68% in test [1] (0.01%, 10 Min); 6.22% ± 0.95% in test [1] (0.01%, 20 Min); 16.40% ± 2.58% in test [1] (0.05%, 10 Min); 18.04% ± 3.09% in test [1] (0.05%, 20 Min); 23.61% ± 3.03% in test [1] (0.1%, 10 Min); 33.83% ± 2.96% in test [1] (0.1%, 20 Min). Besides, the “Percentage of Decreases in Cell Size” value in test [4] is listed as 15%. In addition, the “Electrical Capacitance Contraction of Human Keratinocytes (AUC of capacitance, Mean ± Std Dev)” value in test [2] (0.01% V/V) was determined as 22.82 ± 4.1; in test [2] (0.05% V/V) it was 28.8 ± 5.6; in test [2] (0.1% V/V), 36.1 ± 5.9. The “contraction or shrinkage of keratinocyte cell area as measured by keratinocyte capacitance (in words)” value in test [2] was “dose-dependent contraction or shrinkage”.

The values above are taken from patent US20060193777A1, “Method of screening compounds for potential efficacy for the treatment of signs of aging” (priority 2005, published 2006).
